According to US20240150298A1, “ANTIBACTERIAL COMPOUNDS” (Blacksmith Medicines, Inc., priority 2021, published 2024):
Values after ≈ are worked out from the molar mass of the structure shown. Read-outs that look alike come from different tables or passages of the source.

Assays:
Test in all cases: Bacterial susceptibility testing, MIC by broth microdilution (CLSI)
Format in all cases: cell-based
[1] = test system: P. aeruginosa ATCC27835; settings: Pseudomonas aeruginosa
Procedure: (§1) Minimal inhibitory concentrations (MIC) were determined by the broth microdilution method in accordance with the Clinical and Laboratory Standards Institute (CLSI) guidelines. In brief, organism suspensions were adjusted to a final inoculum between 3×10^5 and 7×10^5 colony-forming units (CFU)/mL. Drug dilutions and inocula were made in sterile, cation adjusted Mueller-Hinton Broth (Beckton Dickinson). In wells, an inoculum volume of 100 μL was mixed to 2 μL of DMSO with 2-fold serial dilutions of drug. All inoculated microdilution trays were incubated in ambient air at 35° C. for 18-24 h. Following incubation, the lowest concentration of the drug that prevented visible growth (OD600 nm<0.05) was recorded as the MIC. Performance of the assay was monitored by the use of laboratory quality-control strains and compounds with defined MIC spectrum, in accordance with CLSI guidelines.

[2] = test system: E. coli ATCC25922; settings: for MIC: Escherichia coli
Procedure: as §1

[3] = test system: K. pneumoniae ATCC13883; settings: for MIC: Klebsiella pneumoniae
Procedure: as §1

[4] = test system: P. aeruginosa 209 PAO1; settings: Pseudomonas aeruginosa
Procedure: as §1

[5] = ATCC27835, broth microdilution, 35° C., 18-24 h, read-out: MIC P. aeruginosa ATCC27835
[6] = ATCC25922, broth microdilution, 35° C., 18-24 h, read-out: MIC E. coli ATCC25922
[7] = ATCC13883, broth microdilution, 35° C., 18-24 h, read-out: MIC K. pneumoniae ATCC13883
[8] = PAO1, broth microdilution, 35° C., 18-24 h, read-out: MIC P. aeruginosa 209 PAO1
[9] = broth microdilution, 35° C., 18-24 h
[10] = ATCC27835, read-out: MIC P. aeruginosa ATCC27835
[11] = ATCC25922, read-out: MIC E. coli ATCC25922
[12] = ATCC13883, read-out: MIC K. pneumoniae ATCC13883
[13] = PAO1, read-out: MIC P. aeruginosa 209 PAO1

Structure (SMILES)	MIC [1, 5] [µg/mL]	MIC [2, 6] [µg/mL]	MIC [3, 7] [µg/mL]	MIC [4, 8] [µg/mL]	MIC E. coli ATCC25922 [2, 9] [µg/mL]	MIC K. pneumoniae ATCC13883 [3, 9] [µg/mL]	MIC [1, 10] [µg/mL]	MIC [2, 11] [µg/mL]	MIC [3, 12] [µg/mL]	MIC [4, 13] [µg/mL]
COC(=O)C1CC(c2ccc(-c3ccc(/C=C/[C@@H](CO)n4ccnc4[C@H](C)O)cc3)cc2)C1 (stereo partly drawn) [Compound 67, methyl 3-(4′-((S,E)-4-hydroxy-3-(2-((S)-1-hydroxyethyl)-1H-imidazol-1-yl)but-1-en-1-yl)-[1,1′-biphenyl]-4-yl)cyclobutane-1-carboxylate]	2 (≈ 4.48 µM)	0.5 (≈ 1.12 µM)	1 (≈ 2.24 µM)	2 (≈ 4.48 µM)	–	–	–	–	–	–
C[C@H](O)c1nccn1[C@@H](/C=C/c1ccc(-c2ccc(C3CC(C(=O)NCC#N)C3)cc2)cc1)CO (stereo partly drawn) [Compound 50, N-(cyanomethyl)-3-(4′-((S,E)-4-hydroxy-3-(2-((S)-1-hydroxyethyl)-1H-imidazol-1-yl)but-1-en-1-yl)-[1,1′-biphenyl]-4-yl)cyclobutane-1-carboxamide]	2 (≈ 4.25 µM)	0.5 (≈ 1.06 µM)	1 (≈ 2.13 µM)	2 (≈ 4.25 µM)	–	–	–	–	–	–
C[C@H](O)c1nccn1[C@@H](/C=C/c1ccc(-c2ccc(C3CC(NCC#N)C3)cc2F)cc1)CO (stereo partly drawn) [Compound 75, 2-((3-(2-fluoro-4′-((S,E)-4-hydroxy-3-(2-((S)-1-hydroxyethyl)-1H-imidazol-1-yl)but-1-en-1-yl)-[1,1′-biphenyl]-4-yl)cyclobutyl)amino)acetonitrile]	4 (≈ 8.69 µM)	0.25 (≈ 0.543 µM)	0.5 (≈ 1.09 µM)	2 (≈ 4.34 µM)	–	–	–	–	–	–
C[C@H](O)c1nccn1[C@@H](/C=C/c1ccc(-c2ccc(OCC(N)CO)cc2)cc1)CO (mixture of isomers) [Compound 8, (2S,E)-4-(4′-(2-amino-3-hydroxypropoxy)-[1,1′-biphenyl]-4-yl)-2-(2-((S)-1-hydroxyethyl)-1H-imidazol-1-yl)but-3-en-1-ol]	4 (≈ 9.44 µM)	–	–	4 (≈ 9.44 µM)	16 (≈ 37.8 µM)	64 (≈ 151 µM)	–	–	–	–
C[C@H](O)c1nccn1[C@@H](/C=C/c1ccc(-c2ccc([C@H]3C[C@H](NS(C)(=O)=O)C3)cc2)cc1)CO [Compound 62, N-((1S,3r)-3-(4′-((S,E)-4-hydroxy-3-(2-((S)-1-hydroxyethyl)-1H-imidazol-1-yl)but-1-en-1-yl)-[1,1′-biphenyl]-4-yl)cyclobutyl)methanesulfonamide]	–	–	–	–	–	–	2 (≈ 4.15 µM)	1 (≈ 2.08 µM)	0.5 (≈ 1.04 µM)	1 (≈ 2.08 µM)
C[C@H](O)c1nccn1[C@@H](/C=C/c1ccc(-c2ccc(C3CC(C(=O)O)C3)cc2)cc1)CO (stereo partly drawn) [Compound 51, 3-(4′-((S,E)-4-hydroxy-3-(2-((S)-1-hydroxyethyl)-1H-imidazol-1-yl)but-1-en-1-yl)-[1,1′-biphenyl]-4-yl)cyclobutane-1-carboxylic acid]	4 (≈ 9.25 µM)	4 (≈ 9.25 µM)	8 (≈ 18.5 µM)	4 (≈ 9.25 µM)	–	–	–	–	–	–
C[C@H](O)c1nccn1[C@@H](/C=C/c1ccc(-c2ccc(OC[C@@H](N)CO)cc2)cc1)CO (single isomer, unassigned) [Compound 10]	2 (≈ 4.72 µM)	8 (≈ 18.9 µM)	16 (≈ 37.8 µM)	1 (≈ 2.36 µM)	–	–	–	–	–	–
C[C@H](O)c1nccn1[C@@H](/C=C/c1ccc(-c2ccc([C@H]3C[C@H](NC(=O)CS(C)(=O)=O)C3)cc2)cc1)CO [Compound 63, N-((1S,3r)-3-(4′-((S,E)-4-hydroxy-3-(2-((S)-1-hydroxyethyl)-1H-imidazol-1-yl)but-1-en-1-yl)-[1,1′-biphenyl]-4-yl)cyclobutyl)-2-(methylsulfonyl)acetamide]	–	–	–	–	–	–	4 (≈ 7.64 µM)	2 (≈ 3.82 µM)	4 (≈ 7.64 µM)	2 (≈ 3.82 µM)
CC(=O)O[C@@H]1C[C@H]1c1ccc(-c2ccc(/C=C/[C@@H](CO)n3ccnc3[C@H](C)O)cc2)cc1 [Compound 69, (1R,2S)-2-(4′-((S,E)-4-hydroxy-3-(2-((S)-1-hydroxyethyl)-1H-imidazol-1-yl)but-1-en-1-yl)-[1,1′-biphenyl]-4-yl)cyclopropyl acetate]	4	0.25	0.5	2	–	–	–	–	–	–
C[C@H](O)c1nccn1C/C=C/c1ccc(-c2ccc(OCC3(N)CC3)cc2)cc1 [Compound 7, (S,E)-1-(1-(3-(4′-((1-aminocyclopropyl)methoxy)-[1,1′-biphenyl]-4-yl)allyl)-1H-imidazol-2-yl)ethan-1-ol]	4 (≈ 10.3 µM)	0.25 (≈ 0.642 µM)	0.25 (≈ 0.642 µM)	2 (≈ 5.13 µM)	–	–	–	–	–	–
C[C@H](O)c1nccn1[C@@H](/C=C/c1ccc(-c2ccc([C@@H]3C[C@H]3OCCO)cc2)cc1)CO [Compound 71, (S,E)-4-(4′-((1S,2R)-2-(2-hydroxyethoxy)cyclopropyl)-[1,1′-biphenyl]-4-yl)-2-(2-((S)-1-hydroxyethyl)-1H-imidazol-1-yl)but-3-en-1-ol]	4 (≈ 9.21 µM)	0.5 (≈ 1.15 µM)	0.5 (≈ 1.15 µM)	2 (≈ 4.6 µM)	–	–	–	–	–	–
C[C@H](O)c1nccn1[C@@H](/C=C/c1ccc(-c2ccc(C3C[C@H]3OCC(N)CO)cc2)cc1)CO (stereo partly drawn) [Compound 72, (2S,E)-4-(4′-((1S,2R)-2-(2-amino-3-hydroxypropoxy)cyclopropyl)-[1,1′-biphenyl]-4-yl)-2-(2-((S)-1-hydroxyethyl)-1H-imidazol-1-yl)but-3-en-1-ol]	2 (≈ 4.31 µM)	2 (≈ 4.31 µM)	8 (≈ 17.3 µM)	2 (≈ 4.31 µM)	–	–	–	–	–	–
C[C@H](O)c1nccn1[C@@H](/C=C/c1ccc(-c2ccc(O[C@@H]3CCC[C@H]3O)cc2)cc1)CO [Compound 73, (1R,2R)-2-((4′-((S,E)-4-hydroxy-3-(2-((S)-1-hydroxyethyl)-1H-imidazol-1-yl)but-1-en-1-yl)-[1,1′-biphenyl]-4-yl)oxy)cyclopentan-1-ol]	4 (≈ 9.21 µM)	0.5 (≈ 1.15 µM)	1 (≈ 2.3 µM)	2 (≈ 4.6 µM)	–	–	–	–	–	–
C[C@H](O)c1nccn1[C@@H](/C=C/c1ccc(-c2ccc(OCC(O)CN)cc2)cc1)CO (mixture of isomers) [Compound 22, (2S,E)-4-(4′-(3-amino-2-hydroxypropoxy)-[1,1′-biphenyl]-4-yl)-2-(2-((S)-1-hydroxyethyl)-1H-imidazol-1-yl)but-3-en-1-ol]	2 (≈ 4.72 µM)	16 (≈ 37.8 µM)	64 (≈ 151 µM)	4 (≈ 9.44 µM)	–	–	–	–	–	–
C[C@H](O)c1nccn1[C@@H](/C=C/c1ccc(-c2ccc(C3CC(NC[C@@H]4CNC(=O)O4)C3)cc2)cc1)CO (stereo partly drawn) [Compound 46, (R)-5-(((3-(4′-((S,E)-4-hydroxy-3-(2-((S)-1-hydroxyethyl)-1H-imidazol-1-yl)but-1-en-1-yl)-[1,1′-biphenyl]-4-yl)cyclobutyl)amino)methyl) oxazolidin-2-one]	4 (≈ 7.96 µM)	0.5 (≈ 0.995 µM)	2 (≈ 3.98 µM)	4 (≈ 7.96 µM)	–	–	–	–	–	–
C[C@H](O)c1nccn1[C@@H](/C=C/c1ccc(-c2ccc(C3CC(C(=O)NCc4c[nH]cn4)C3)cc2)cc1)CO (stereo partly drawn) [Compound 55, N-((1H-imidazol-4-yl)methyl)-3-(4′-((S,E)-4-hydroxy-3-(2-((S)-1-hydroxyethyl)-1H-imidazol-1-yl)but-1-en-1-yl)-[1,1′-biphenyl]-4-yl)cyclobutane-1-carboxamide]	2 (≈ 3.91 µM)	0.5 (≈ 0.977 µM)	2 (≈ 3.91 µM)	2 (≈ 3.91 µM)	–	–	–	–	–	–
C[C@H](O)c1nccn1[C@@H](/C=C/c1ccc(-c2ccc(OCC(N)(CO)CO)cc2)cc1)CO [Compound 74, 2-amino-2-(((4′-((S,E)-4-hydroxy-3-(2-((S)-1-hydroxyethyl)-1H-imidazol-1-yl)but-1-en-1-yl)-[1,1′-biphenyl]-4-yl)oxy)methyl)propane-1,3-diol]	1 (≈ 2.2 µM)	8 (≈ 17.6 µM)	> 32	2 (≈ 4.41 µM)	–	–	–	–	–	–
C[C@H](O)c1nccn1[C@@H](/C=C/c1ccc(-c2ccc([C@H]3C[C@H](NC(=O)CN(C)C)C3)cc2)cc1)CO [Compound 66, 2-(dimethylamino)-N-((1S,3r)-3-(4′-((S,E)-4-hydroxy-3-(2-((S)-1-hydroxyethyl)-1H-imidazol-1-yl)but-1-en-1-yl)-[1,1′-biphenyl]-4-yl)cyclobutyl)acetamide]	–	–	–	–	–	–	4 (≈ 8.19 µM)	4 (≈ 8.19 µM)	8 (≈ 16.4 µM)	4 (≈ 8.19 µM)
